Test results taken from ChEMBL document CHEMBL5634152, “The discovery of water-soluble indazole derivatives as potent microtubule polymerization inhibitors” (Eur J Med Chem, 2023).
In brackets after ≈: the same amount, converted by molar mass. One block for each molecule: values may come before it.

Assays:
A549 [1] = experiment: cells; settings: Homo sapiens
Description: Antiproliferative activity against human A549 cells assessed as cell growth inhibition incubated for72 hrs by MTT assay

Huh-7 = experiment: cells; settings: Homo sapiens
Description: Antiproliferative activity against human Huh-7 cells assessed as cell growth inhibition incubated for72 hrs by MTT assay

T-24 = experiment: cells; settings: Homo sapiens
Description: Antiproliferative activity against human T-24 cells assessed as cell growth inhibition incubated for72 hrs by MTT assay

A549/TR = experiment: Antiproliferative activity against human A549/Taxol cells assessed as cell growth inhibition incubated for72 hrs by MTT assay; format: functional, cell-based
[2] = Resistance index, ratio of IC50 for human A549/Taxol cells to IC50 for human A549 cells; format: functional
[3] = Aqueous solubility of compound in pH 7.4 at 10 mg/ml by HPLC analysis; format: physicochemical; settings: buffer, read-out: solubility
[4] = Lipophilicity, logP of compound in n-octanol-water at 5 mg/ml incubated for 8 hrs by HPLC analysis; format: physicochemical
A549 [5] = experiment: Antitumor activity against human A549 cells xenografted in Balb/c nude mouse assessed as tumor growth inhibition at 25 mg/kg, IG qd for 21 days relative to control; format: functional; settings: A549, po, 504 h, time 21 day, read-out: TGI

Structure (SMILES): COc1ccc(-n2ncc3ccc(-c4cc(OC)c(OC)c(OC)c4)cc32)cc1
- IC50 (A549 [1]): > 25000 nM
- IC50 (Huh-7): > 25000 nM
- IC50 (T-24): > 25000 nM

Structure (SMILES): COc1cc(-n2ncc3ccc(-c4ccc5[nH]ccc5c4)cc32)cc(OC)c1OC
- IC50 (A549 [1]): 120 nM
- IC50 (Huh-7): 140 nM
- IC50 (T-24): 170 nM

Structure (SMILES): COc1cc(-n2ncc3ccc(-c4ccc(Cl)cc4)cc32)cc(OC)c1OC
- IC50 (A549 [1]): 200 nM
- IC50 (Huh-7): 150 nM
- IC50 (T-24): 320 nM

Structure (SMILES): COc1cc(-n2ncc3ccc(-c4ccc(F)cc4)cc32)cc(OC)c1OC
- IC50 (A549 [1]): 90 nM
- IC50 (Huh-7): 110 nM
- IC50 (T-24): 270 nM

Structure (SMILES): COc1ccc(-c2ccc3cnn(-c4cc(OC)c(OC)c(OC)c4)c3c2)cn1
- IC50 (A549 [1]): 150 nM
- IC50 (Huh-7): 330 nM
- IC50 (T-24): 190 nM

Structure (SMILES): COc1ccc(-c2ccc3cnn(-c4cc(OC)c(OC)c(OC)c4)c3c2)cc1
- IC50 (A549 [1]): 92 nM
- IC50 (Huh-7): 100 nM
- IC50 (T-24): 110 nM

Structure (SMILES): COc1cc(-c2ccc3cnn(-c4ccc(C)cc4)c3c2)cc(OC)c1OC
- IC50 (A549 [1]): > 25000 nM
- IC50 (Huh-7): > 25000 nM
- IC50 (T-24): > 25000 nM

Structure (SMILES): COc1ccc(-n2ncc3ccc(-c4cc(OC)c(OC)c(OC)c4)cc32)cn1
- IC50 (A549 [1]): > 25000 nM
- IC50 (Huh-7): > 25000 nM
- IC50 (T-24): > 25000 nM

Structure (SMILES): CC(=O)O[C@H]1C(=O)[C@@]2(C)[C@H]([C@H](OC(=O)c3ccccc3)[C@]3(O)C[C@H](OC(=O)[C@H](O)[C@@H](NC(=O)c4ccccc4)c4ccccc4)C(C)=C1C3(C)C)[C@]1(OC(C)=O)CO[C@@H]1C[C@@H]2O [PACLITAXEL]
- IC50 (A549/TR): 5650 nM
- Ratio IC50 [2]: 403.8

Structure (SMILES): COc1ccc2c(Nc3cc(OC)c(OC)c(OC)c3)n[nH]c2c1
- IC50 (A549/TR): 91 nM
- Ratio IC50 [2]: 1.5
- solubility [3]: 3.48 µg/mL (≈ 10.6 µM)
- logP at 8 h [4]: 3.7
- inhibition in vivo at 25 mg/kg (A549 [5]): 47.8%
- IC50 (A549 [1]): 60 nM
- IC50 (Huh-7): 54 nM
- IC50 (T-24): 130 nM

Second part, the molecule after the results:

- IC50 (A549 [1]): 490 nM
- IC50 (Huh-7): 110 nM
- IC50 (T-24): 280 nM
Structure (SMILES): COc1ccc(-c2ccc3c(C)nn(-c4cc(OC)c(OC)c(OC)c4)c3c2)cc1

- IC50 (A549 [1]): > 25000 nM
- IC50 (Huh-7): > 25000 nM
- IC50 (T-24): > 25000 nM
Structure (SMILES): COc1ccc(-n2nc(C)c3ccc(-c4cc(OC)c(OC)c(OC)c4)cc32)cn1

- IC50 (A549 [1]): 5300 nM
- IC50 (Huh-7): 1450 nM
- IC50 (T-24): 4820 nM
Structure (SMILES): COc1cc(-c2ccc3c(C)nn(-c4ccc5c(c4)CCO5)c3c2)cc(OC)c1OC

- IC50 (A549 [1]): 98 nM
- IC50 (Huh-7): 79 nM
- IC50 (T-24): 110 nM
Structure (SMILES): COc1cc(-n2ncc3ccc(-c4ccc5c(c4)CCO5)cc32)cc(OC)c1OC
